Laboratory results reported in patent publication US20140213557A1, “Active Compound Combinations” (Bayer CropScience AG, priority 2005, published 2014).
“And” between values parts separate entries of the source, which are not always exact repeats. Equal values may be shown once.

System: Phakopsora pachyrhizi
Assay: Phakopsora test (soya bean)
Assay type: in vivo
Conditions: sprayed 1 day before inoculation, evaluation 11 days after inoculation
Protocol: The suitable active compound preparations used are commercial formulations which, if required, are diluted to the desired concentration prior to application.
Soya bean plants (cv. Miyagishirome) are cultivated in a plastic vessel having a diameter of 7.5 cm for 14 days, until they have reached the ⅔-leaf stage. The active compound preparations were, at the concentrations stated below, sprayed onto the test plants (6 ml for in each case 3 test vessels, the test solution contains 0.02% of Neoesterin as tackifier).
1 day after the application of the active compound preparation, the plants were sprayed with a urediniospore suspension (1×10^5 urediniospores/ml) of the rust pathogen Phakopsora pachyrhizi. The plants are then placed in a greenhouse at about 25° C. during the day and about 18° C. at night and a relative atmospheric humidity of 91.9%.
Evaluation is carried out 11 days after the inoculation by comparison of the infected areas of untreated and treated plants. 0% means an efficacy which corresponds to that of the control, whereas an efficacy of 100% means that no infection is observed.

| SMILES | Efficacy in % found (application rate 0.5 ppm) | Efficacy in % found (application rate 5 ppm) |
| --- | --- | --- |
| CC(C)(C)C(O)(CCc1ccc(Cl)cc1)Cn1cncn1 (centres unmarked) [(3-17) tebuconazole, tebuconazole] | 60% and 50% |  |
| CP(=O)(O)CCC(N)C(=O)O (centres unmarked) [(1-2) glufosinate, glufosinate] | 0% | 0% |
| O=C(O)CNCP(=O)(O)O [(1-1) glyphosate, glyphosate] | 0% | 0% |
